Literature values as cited in PMC3238097 (Journal of the American Chemical Society, 2011).

For naphthalene-diphenylalanine-glucosamine, the hydrogel formation is listed as “fails to form hydrogel properly”.
